This is an account of results in patent publication US20100210652A1, “Method For Controlling Fungal Pests” (priority 2006, published 2010).

The structures appear in SMILES notation.

The subject of experiment [1] is sensitive Plasmopara viticola strains. Kind of experiment: Activity against sensitive Plasmopara viticola strains on grapevine plants (Riesling). Type of experiment: in vivo. Particulars: final evaluation on day 6. The protocol: (§1) Study on the activity of the four carboxamide fungicides against sensitive and resistant Plasmopara viticola strains.
(§2) Four-week old grapevine plants (Riesling) with 6-8 leaves are treated with 50 ml of a solution which contains the harmful fungi (200 000 spores of the fungus Plasmopara viticola per milliliter). Tests are carried out both with sensitive and with resistant strains.
(§3) The fungicidal active substances described in Example 1 are applied both one day before the treatment with the harmful fungi (preventative treatment) and in each case one day after the treatment with the harmful fungi (curative treatment). After the treatment with the harmful fungi, the plants are left to stand overnight at 95% atmospheric humidity and a temperature of 18° C. This is followed by a 6-day observation phase and a final evaluation on day 6, the test plants being exposed to daylight for 12 hours and left to stand in the dark for 12 hours.
(§4) To promote spore development, the undersides of the grapevine leaves are sprayed with water 24 hours before carrying out the final evaluation and left to stand.
(§5) The experiments are evaluated by determining the percentage of diseased leaf area of each plant. A high percentage means a high disease level caused by the harmful fungus, while a low percentage means a low disease level caused by the harmful fungus.

Experiment [2] deals with resistant Plasmopara viticola strains. The experiment can be described thus: Activity against resistant Plasmopara viticola strains on grapevine plants (Riesling). Type of experiment: in vivo. Particulars: for diseased leaf area: resistant fungi, grapevine (Riesling), final evaluation on day 6; for assessment in words of the treatment of resistant fungal strains: preventative treatment. Here is the method: as §1, §2, §3, §4, §5

[3] abbreviates: curative treatment (one day after treatment with the harmful fungi).
[4] abbreviates: preventative treatment (one day before treatment with the harmful fungi).

For `C#CCOc1ccc(CCNC(=O)C(OCC#C)c2ccc(Cl)cc2)cc1OC` (racemic) [stock solution B, (RS)-2-(4-chlorophenyl)-N-[3-methoxy-4-(prop-2-ynyloxy)phenethyl]-2-(prop-2-ynyloxy)acetamide], the diseased leaf area in experiment [1] (setting [3]) was determined as 0%; in experiment [1] (setting [4]), 0%; in experiment [2] (setting [3]) it was 65%; in experiment [2] (setting [4]) it was 8%. Also, in experiment [2], the “assessment in words of the treatment of resistant fungal strains” value (shortened to “assessment in words”) was “effective”.
As to `COc1ccc(C(=CC(=O)N2CCOCC2)c2ccc(Cl)cc2)cc1OC` [stock solution A, (E,Z)-4-[3-(4-chlorophenyl)-3-(3,4-dimethoxyphenyl)acryloyl]morpholine], the diseased leaf area in experiment [1] (setting [3]) came to 0%; in experiment [1] (setting [4]) it was 0%; in experiment [2] (setting [3]) it was 70%; in experiment [2] (setting [4]), 0.5%. The “assessment in words” value in experiment [2] was “effective”.
For the compound `Cc1ccc(C(C)NC(=O)[C@@H](NC(=O)OC(C)C)C(C)C)cc1` (stereo partly drawn) [stock solution C, isopropyl 2-methyl-1-[(1-p-tolylethyl)carbamoyl]-(S)-propylcarbamate], the diseased leaf area came to 0% in experiment [1] (setting [3]), 0% in experiment [1] (setting [4]), 75% in experiment [2] (setting [3]) and 70% in experiment [2] (setting [4]). The “assessment in words” value in experiment [2] was “no satisfactory results”.
Take `CC(C)OC(=O)N[C@H](C(=O)N[C@H](C)c1nc2ccc(F)cc2s1)C(C)C` [stock solution D, isopropyl[(S)-1-{[(R)-1-(6-fluoro-1,3-benzothiazol-2-yl)ethyl]carbamoyl}-2-methylpropyl]carbamate]: the diseased leaf area was 0% in experiment [1] (setting [3]), 0% in experiment [1] (setting [4]), 70% in experiment [2] (setting [3]) and 55% in experiment [2] (setting [4]). Also, the “assessment in words” value in experiment [2] is listed as “no satisfactory results”.
